Tests used:
human eosinophils [1] = assay: Chemoattractant-induced migration of eosinophils; assay type: cell-based; conditions: for migration of human eosinophils induced by chemoattractant: C5a 10^−7 M positive control, eotaxin 50 nM on untreated eosinophils, FIG. 1, FIG. 3
Method: Eosinophil Isolation: Eosinophils were purified from the peripheral blood of allergic donors (Boehme, et al. J. Immunol. 163:1611 (1999)).
(§1) Culture medium alone or medium containing 5-HT (100 nM) or eotaxin (50 nM) was added to the lower chamber. In certain experiments 5-HT was added to only upper or both upper and lower chambers and incubated at 37° C. for 4 h after which the chambers were removed and the number of migrated cells was quantitated and expressed as a % of total cells added to the well.

human eosinophils [2] = assay: Transwell chamber chemotaxis assay: inhibition of 5-HT-induced eosinophil chemotaxis; assay type: cell-based; conditions: 5-HT 100 nM
Method: as §1, with “Eosinophil Isolation: Eosinophils were purified from the peripheral blood of allergic donors (Boehme, et al. J. Immunol. 163:1611 (1999)). […] Culture” for “Culture”, “well. […] Neuropsychopharmacology 15:116 (1996)), on 5-HT mediated eosinophil chemotaxis was investigated in vitro (FIG. 3).” for “well.”

human eosinophils [3] = assay: Transwell chamber chemotaxis assay: eotaxin-induced eosinophil migration; assay type: cell-based; conditions: MDL-100,907 20 μM; eotaxin 50 nM; FIG. 3
Method: as §1, with “Eosinophil Isolation: Eosinophils were purified from the peripheral blood of allergic donors (Boehme, et al. J. Immunol. 163:1611 (1999)). […] Culture” for “Culture”, “well. […] Neuropsychopharmacology 15:116 (1996)), on 5-HT mediated eosinophil chemotaxis was investigated in vitro (FIG. 3).” for “well.”

OVA-challenged mice [4] = assay: AHR to methacholine in murine model of allergic airway inflammation; assay type: in vivo, BALB/c mice; conditions: 0.5 mg/kg body weight i.p., 15 min before OVA aerosol challenge; versus OVA-challenged mice without antagonist; FIG. 6
Method: Murine model of allergic airway inflammation: Pulmonary eosinophilia was induced in female BALB/c mice. In brief, mice were sensitized by two i.p. injections with 50 μg ovalbumin (OVA) in 200 μl alum (Pierce). Non-sensitized mice received 200 μl of alum alone. […] Fifteen minutes after injection of the inhibitor, mice were exposed to three inhalations (30 min each) of aerosolized OVA (10 mg/ml in 0.9% sterile saline) at 1 h intervals. Non-sensitized mice received an i.p. injection of vehicle and aerosol challenge of saline only. One hour after the last aero-allergen challenge, mice were assessed for airway hyperreactivity/responsiveness (AHR) as described below and subsequently sacrificed and processed for BAL fluid collection to determine eosinophil counts (Broide, et al. Am. J. Respir. Cell Mol. Biol. 18:218 (1998)). Determination of AHR to methacholine: AHR was assessed after completion of the final OVA inhalation challenges, immediately before the mice were sacrificed using a single chamber whole body plethysmograph obtained from Buxco (Troy, N.Y.), as previously described (Broide, et al. Am. J. Physiol. Lung Cell Mol Physiol. 282:[…] (2002)). In this system, an unrestrained, spontaneously breathing mouse is placed into the main chamber of the plethysmograph, and pressure differences between this chamber and a reference chamber are recorded. […]

OVA-challenged mice [5] = assay: Eosinophil counts in BAL fluid in murine model of allergic airway inflammation; assay type: in vivo, BALB/c mice; conditions: 0.5 mg/kg body weight i.p.; versus OVA-challenged mice without compound; FIG. 7
Method: Murine model of allergic airway inflammation: Pulmonary eosinophilia was induced in female BALB/c mice. In brief, mice were sensitized by two i.p. injections with 50 μg ovalbumin (OVA) in 200 μl alum (Pierce). Non-sensitized mice received 200 μl of alum alone. […] Fifteen minutes after injection of the inhibitor, mice were exposed to three inhalations (30 min each) of aerosolized OVA (10 mg/ml in 0.9% sterile saline) at 1 h intervals. Non-sensitized mice received an i.p. injection of vehicle and aerosol challenge of saline only. One hour after the last aero-allergen challenge, mice were assessed for airway hyperreactivity/responsiveness (AHR) as described below and subsequently sacrificed and processed for BAL fluid collection to determine eosinophil counts (Broide, et al. Am. J. Respir. Cell Mol. Biol. 18:218 (1998)). […] BALB/c mice were immunized intraperitoneally (i.p.) with alum alone (control), 50 μg OVA in alum and boosted 12 days later with an additional dose of OVA (50 μg). […] Fifteen minutes later, mice were challenged with either nebulized OVA (10 mg/ml) or PBS (challenge control) for 30 min. […] Three hours after the last challenge, AHR was measured in unrestrained mice using BUXCO plethysmography. […] The percentage of the total cells that were eosinophils was quantitated. […] No eosinophils were detected (n.d.) in the BAL fluid of control mice.

5HT1 receptors = conditions: cited from earlier work
[6] = system: adrenergic alpha-1 receptors; conditions: cited from earlier work
dopamine D-2 receptors = dopamine D-2 receptors (Homo sapiens, UniProt P14416); conditions: cited from earlier work
Chain of dopamine D-2 receptors (P14416 whole entry): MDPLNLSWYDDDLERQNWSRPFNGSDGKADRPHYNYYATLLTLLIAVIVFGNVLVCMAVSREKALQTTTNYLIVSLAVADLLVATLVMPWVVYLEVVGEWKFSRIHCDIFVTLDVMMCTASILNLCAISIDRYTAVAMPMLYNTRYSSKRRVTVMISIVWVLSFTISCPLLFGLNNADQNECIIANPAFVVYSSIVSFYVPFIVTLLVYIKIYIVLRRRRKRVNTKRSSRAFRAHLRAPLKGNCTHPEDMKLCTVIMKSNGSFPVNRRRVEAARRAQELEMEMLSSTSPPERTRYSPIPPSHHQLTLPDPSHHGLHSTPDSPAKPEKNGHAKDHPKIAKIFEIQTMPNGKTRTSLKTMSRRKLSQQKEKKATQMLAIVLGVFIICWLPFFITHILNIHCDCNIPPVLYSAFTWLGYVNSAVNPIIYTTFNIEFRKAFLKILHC

[7] = system: muscarinic cholinergic receptors; conditions: cited from earlier work
neutrophils = assay: Chemoattractant-induced chemotaxis of neutrophils; assay type: cell-based; conditions: C5a 10^−7 M positive control; FIG. 1

eotaxin: chemokine, eosinophil chemoattractant
migration of human eosinophils induced by chemoattractant (human eosinophils [1]; 5-HT alone): robust migratory response

COc1cccc([C@H](O)C2CCN(CCc3ccc(F)cc3)CC2)c1OC [MDL-100,907, R-(+)-α-(2,3-dimethoxyphenyl)-1-[2-(4-fluorophenyl)ethyl]-4-piperidine methanol]
chemotactic response to 5-HT (human eosinophils [2]; MDL-100,907 20 μM, versus untreated eosinophils, FIG. 3): significantly reduced chemotactic response | inhibition of eosinophil chemotaxis to 5-HT (human eosinophils [2]; all ranges from 0.1 μM to 100 μM, FIG. 5): Robust inhibition of eosinophil chemotaxis | migratory response to eotaxin of treated eosinophils (human eosinophils [3]): robust migratory response | AHR (airway hyperresponsiveness), BUXCO plethysmography (OVA-challenged mice [4]): markedly reduced AHR | number of eosinophils present in the BAL fluid (OVA-challenged mice [5]): inhibited the number of eosinophils | activity at 5HT1 receptors (5HT1 receptors): little detectable activity | activity at adrenergic alpha-1 receptors [6]: little detectable activity | activity at dopamine D-2 receptors (dopamine D-2 receptors): little detectable activity | activity at muscarinic cholinergic receptors [7]: little detectable activity

NCCc1c[nH]c2ccc(O)cc12 [5-HT, Serotonin]
concentration at which induced eosinophil migration was maximal (human eosinophils [1]; 5-HT alone, dose-dependent): 10^−6 molar (M) | migration of human eosinophils induced by chemoattractant (human eosinophils [1]; 5-HT alone): induce migration of human eosinophils in a dose-dependent manner | nature of induced migration (chemotactic or chemokinetic) (human eosinophils [1]; 5-HT in upper or both chambers, FIG. 2): directed chemotactic response and not chemokinetic | chemotaxis of neutrophils induced by chemoattractant (neutrophils): did not induce chemotaxis of neutrophils

B1: C5a: positive control chemoattractant for eosinophils and neutrophils (protein, UniProt P01031 678-751, looked up)
C5a anaphylatoxin: TLQKKIEEIAAKYKHSVVKKCCYDGACVNNDETCEQRAARISLGPRCIKAFTECCVVASQLRANISHKDMQLGR
modifications: C5a anaphylatoxin
notes: positive control chemoattractant for eosinophils and neutrophils
migration of human eosinophils induced by chemoattractant (human eosinophils [1]; 5-HT alone): induce migration of both eosinophils and neutrophils | chemotaxis of neutrophils induced by chemoattractant (neutrophils): induce migration of both eosinophils and neutrophils
